What was measured:
Rattus norvegicus = species on record: Rattus norvegicus; experiment: Direct effect on rat stomach strip (RSS) preparation; type: functional
Homo sapiens [1] = species on record: Homo sapiens; experiment: Stimulatory activity against aggregation of human platelet induced by arachidonic acid; type: functional
Homo sapiens [2] = species on record: Homo sapiens; experiment: Inhibitory activity against aggregation of human platelet induced by epinephrine 2; type: functional
Homo sapiens [3] = species on record: Homo sapiens; experiment: Inhibitory activity against aggregation of human platelet induced by epinephrine 1; type: functional
Homo sapiens [4] = species on record: Homo sapiens; experiment: Inhibitory activity against aggregation of human platelet induced by adenosine diphosphate; type: functional
Thromboxane-A synthase [5] = molecular target: T1, Thromboxane-A synthase (Homo sapiens, UniProt P24557); experiment: Inhibition of human platelet Thromboxane synthetase; conditions: read-out: I50
T1 sequence (P24557 whole entry): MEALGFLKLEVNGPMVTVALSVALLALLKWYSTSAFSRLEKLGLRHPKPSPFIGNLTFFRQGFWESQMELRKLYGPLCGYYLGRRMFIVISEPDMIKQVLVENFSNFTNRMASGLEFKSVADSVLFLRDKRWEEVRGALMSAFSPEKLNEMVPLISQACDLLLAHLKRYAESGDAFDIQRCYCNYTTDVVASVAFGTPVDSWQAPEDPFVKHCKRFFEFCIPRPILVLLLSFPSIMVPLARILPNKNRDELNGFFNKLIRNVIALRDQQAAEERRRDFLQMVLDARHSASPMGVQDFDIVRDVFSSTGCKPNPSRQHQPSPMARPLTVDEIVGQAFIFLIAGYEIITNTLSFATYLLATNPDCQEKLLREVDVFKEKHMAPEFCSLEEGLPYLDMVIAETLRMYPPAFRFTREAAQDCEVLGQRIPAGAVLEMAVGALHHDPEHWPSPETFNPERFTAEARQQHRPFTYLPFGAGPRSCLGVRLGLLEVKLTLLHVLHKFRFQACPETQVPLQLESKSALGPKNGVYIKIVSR

Homo sapiens [6] = species on record: Homo sapiens; experiment: Inhibitory activity against aggregation of human platelet induced by arachidonic acid; type: functional; conditions: read-out: I50
Cavia porcellus [7] = species on record: Cavia porcellus; experiment: Selectivity against 9,11-AZO-PGH2 induced contractions of smooth muscle guinea pig trachea; type: functional
Homo sapiens [8] = species on record: Homo sapiens; experiment: Stimulatory activity against aggregation of human platelet induced by adenosine diphosphate; type: functional
Homo sapiens [9] = species on record: Homo sapiens; experiment: Stimulatory activity against aggregation of human platelet induced by epinephrine 1; type: functional
Cavia porcellus [10] = species on record: Cavia porcellus; experiment: Selectivity against histamine in smooth muscle of guinea pig trachea stimulated with histamine; type: functional; conditions: Muscle tissue
Homo sapiens [11] = species on record: Homo sapiens; experiment: Stimulatory activity against aggregation of human platelet induced by epinephrine 2; type: functional
Homo sapiens [12] = species on record: Homo sapiens; experiment: stimulatory activity against aggregation of human platelet induced by arachidonic acid; type: functional
Homo sapiens [13] = species on record: Homo sapiens; experiment: stimulatory activity against aggregation of human platelet induced by epinephrine 1; type: functional
Homo sapiens [14] = species on record: Homo sapiens; experiment: stimulatory activity against aggregation of human platelet induced by epinephrine 2; type: functional
Homo sapiens [15] = species on record: Homo sapiens; experiment: stimulatory activity against aggregation of human platelet induced by adenosine diphosphate; type: functional
Thromboxane-A synthase [16] = molecular target: T1, Thromboxane-A synthase; experiment: Inhibitory activity against human platelet Thromboxane synthetase; conditions: read-out: I 50
[17] = molecular target: T2, Thromboxane-A synthase (Homo sapiens) (UniProt P24557); conditions: 1000 uM
T2 sequence (whole entry): T1 sequence (P24557 whole entry)
Description: Inhibitory activity against human platelet Thromboxane synthetase at a dose of 1000 uM

Row | Compound | A50 (Rattus norvegicus) | IC50 (Homo sapiens [2]; Homo sapiens, read-out: I50) | IC50 (Homo sapiens [3]; Homo sapiens, read-out: I50) | IC50 (Homo sapiens [4]; Homo sapiens, read-out: I50) | IC50 (Thromboxane-A synthase [5]) | IC50 (Homo sapiens [6]; Homo sapiens) | IC50 (Cavia porcellus [7]; read-out: I50) | IC50 (Cavia porcellus [10]; read-out: I50) | IC50 (Homo sapiens [2]; read-out: I50) | IC50 (Homo sapiens [6]) | other results
1 | CCCCC[C@H](O)/C=C/[C@@H]1C2CCC(O2)[C@H]1C/C=C\CCCC(=O)O (stereo partly specified) | 2.9 µM | 4.2 µM | 2.2 µM | 1.6 µM | 1000 µM | 0.3 µM | 0.34 µM | 2.4 µM |  |  | A50 (Homo sapiens [1]): 30 µM; A50 (Homo sapiens [8]): 30 µM; A50 (Homo sapiens [9]): 30 µM; A50 (Homo sapiens [11]): 30 µM
2 | CCCCC[C@@H](O)/C=C/[C@H]1C2CCC(O2)[C@H]1C/C=C\CCCC(=O)O (stereo in doubt; 3d) |  |  |  |  |  |  |  |  | 170 µM | 93 µM | 
3 | CCCCC[C@H](O)/C=C/[C@@H]1C2CCC(O2)[C@@H]1C/C=C\CCCC(=O)O (stereo in doubt; 3b) | 0.4 µM |  |  |  | 1000 µM |  | 0.12 µM | > 10 µM | 7.5 µM | 0.6 µM | IC50 (Homo sapiens [3]; read-out: I50): 670 µM; IC50 (Homo sapiens [4]; read-out: I50): 310 µM
4 | CCCCC[C@@H](O)/C=C/[C@H]1C2CCC(O2)[C@H]1C/C=C\CCCC(=O)O (stereo in doubt; 2b) | >10 µM | 130 µM | > 1000 µM | > 1000 µM | > 1000 µM |  | > 10 µM | > 10 µM |  | 360 µM | 
5 | CCCCC[C@@H](O)/C=C/[C@@H]1C2CCC(O2)[C@@H]1C/C=C\CCCC(=O)O (stereo in doubt; 3a) | 0.0015 µM |  |  |  | 1000 µM |  | > 10 µM | > 10 µM |  |  | A50 (Homo sapiens [12]): 2 µM; A50 (Homo sapiens [13]): 2 µM; A50 (Homo sapiens [14]): 2 µM; A50 (Homo sapiens [15]): 2 µM
6 | CCCCC[C@H](O)/C=C/[C@@H]1C2CCC(O2)[C@@H]1C/C=C\CCCC(=O)O (stereo in doubt; 2c) |  | 6 µM | > 1000 µM |  | > 1000 µM |  |  |  |  | 310 µM | IC50 (Homo sapiens [4]; read-out: I50): > 1000 µM
7 | CCCCC[C@@H](O)/C=C/[C@@H]1C2CCC(O2)[C@H]1C/C=C\CCCC(=O)O (stereo in doubt; 5d) |  | 52 µM | > 1000 µM | > 1000 µM | > 1000 µM |  |  |  |  | 95 µM | 
8 | CCCCC[C@@H](O)/C=C/[C@@H]1C2CCC(O2)[C@H]1C/C=C\CCCC(=O)O (stereo in doubt; 4a) | 0.51 µM |  |  |  |  |  |  |  |  | 4.2 µM | IC50 (Homo sapiens [2]; read-out: I 50): 10 µM; IC50 (Homo sapiens [3]; read-out: I 50): > 1000 µM; IC50 (Homo sapiens [4]; read-out: I 50): 150 µM; IC50 (Thromboxane-A synthase [16]): 770 µM; IC50 (Cavia porcellus [7]; read-out: I 50): 65 µM; IC50 (Cavia porcellus [10]; read-out: I 50): > 10 µM
9 | CCCCC[C@@H](O)/C=C/[C@H]1C2CCC(O2)[C@@H]1C/C=C\CCCC(=O)O (stereo in doubt; 5b) | 0.88 µM |  |  |  | > 1000 µM |  | 4.9 µM | > 10 µM | 0.7 µM | 9.5 µM | IC50 (Homo sapiens [3]; read-out: I50): > 1000 µM
10 | CCCCC[C@H](O)/C=C/[C@H]1C2CCC(O2)[C@@H]1C/C=C\CCCC(=O)O (stereo partly specified) | 0.0009 µM | 56 µM | > 1000 µM | > 1000 µM | > 1000 µM | 23 µM | 2.2 µM | > 10 µM |  |  | inhibition [17]: 71%; A50 (Homo sapiens [1]): 0.26 µM; A50 (Homo sapiens [8]): 0.26 µM; A50 (Homo sapiens [9]): 0.26 µM; A50 (Homo sapiens [11]): 0.26 µM
11 | CCCCC[C@@H](O)/C=C/[C@H]1C2CCC(O2)[C@@H]1C/C=C\CCCC(=O)O (stereo in doubt; 4d) |  |  | 670 µM | > 1000 µM | 470 µM |  |  |  | 140 µM | 1000 µM | 
12 | CCCCC[C@H](O)/C=C/[C@H]1C2CCC(O2)[C@H]1C/C=C\CCCC(=O)O (stereo partly specified) | 0.22 µM | 0.6 µM | > 1000 µM | > 1000 µM | > 1000 µM | 9.2 µM | 2.1 µM | > 10 µM |  |  | A50 (Homo sapiens [1]): 20 µM; A50 (Homo sapiens [8]): 20 µM; A50 (Homo sapiens [9]): 20 µM; A50 (Homo sapiens [11]): 20 µM
13 | CCCCC[C@@H](O)/C=C/[C@@H]1C2CCC(O2)[C@@H]1C/C=C\CCCC(=O)O (stereo in doubt; 2d) |  |  |  | > 1000 µM | 560 µM | 140 µM |  |  |  |  | 

— ChEMBL document CHEMBL1122834, “Synthesis and in vitro pharmacology of 7-oxabicyclo[2.2.1]heptane analogues of thromboxane A2/PGH2” (J Med Chem, 1985)
